In DBAASP:
In brackets after ≈: the same amount, converted by molar mass. Several values for one entry are separate records, joined by “and”; a condition that tells them apart may be missing. Equal entries are not always repeated.

What was measured:
Experiment in all cases: ≥ marks a high value that may be exact or a test limit, other limits are often not marked, values filed in µg/mL are converted to µM
[1] = system: Escherichia coli ATCC 25922
[2] = system: Pseudomonas aeruginosa ATCC 27853
[3] = system: Staphylococcus aureus ATCC 25923
[4] = system: Staphylococcus aureus ATCC 29213

Row | MIC [1] | MIC [2] | MIC [3] | MIC [4] | SMILES
1 | 457 µM (≈ 600 µg/mL) | – | – | > 534 µM | CC[C@H](C)[C@H](NC(=O)CNC(=O)CNC(=O)[C@H](CC(C)C)NC(=O)[C@H](CC(C)C)NC(=O)[C@H](CO)NC(=O)CNC(=O)[C@@H](NC(=O)[C@H](CC(C)C)NC(=O)[C@@H](N)CC(N)=O)C(C)C)C(=O)N[C@@H](CC(C)C)C(=O)N[C@@H](CCCCN)C(=O)N[C@@H](CCCCN)C(N)=O [NLVGSLLGGILKK]
2 | 186 µM (≈ 256 µg/mL) | – | – | – | CSCC[C@H](NC(=O)[C@H](CCCN=C(N)N)NC(=O)[C@H](Cc1c[nH]c2ccccc12)NC(=O)[C@H](CCC(N)=O)NC(=O)[C@H](Cc1c[nH]c2ccccc12)NC(=O)[C@H](CCCN=C(N)N)NC(=O)[C@@H](N)CCCN=C(N)N)C(=O)N[C@@H](CCCCN)C(=O)N[C@@H](CCCCN)C(=O)O [RRWQWRMKK]
3 | 32 µM (≈ 56.4 µg/mL) | – | – | – | CC(C)C[C@H](NC(=O)[C@H](Cc1ccccc1)NC(=O)[C@@H]1CCCN1C(=O)[C@H](Cc1c[nH]c2ccccc12)NC(=O)[C@H](Cc1c[nH]c2ccccc12)NC(=O)[C@H](Cc1c[nH]c2ccccc12)NC(=O)[C@H](C)NC(=O)[C@H](Cc1ccccc1)NC(=O)[C@H](CCCCN)NC(=O)[C@H](CCCCN)NC(=O)[C@@H](N)C(C)C)C(=O)N[C@@H](CCCCN)C(=O)N[C@@H](CCCCN)C(N)=O [VKKFAWWWPFLKK]
4 | 10 µM (≈ 17.8 µg/mL) | – | – | 10 µM (≈ 17.8 µg/mL) | CC(C)C[C@H](NC(=O)[C@H](CCCCN)NC(=O)[C@H](C)NC(=O)[C@H](CC(C)C)NC(=O)[C@H](CCCCN)NC(=O)[C@H](CCCCN)NC(=O)[C@H](CC(C)C)NC(=O)[C@H](CC(C)C)NC(=O)[C@H](CCCCN)NC(=O)[C@H](CC(C)C)NC(=O)[C@H](CC(C)C)NC(=O)[C@H](CCCCN)NC(=O)[C@H](CCCCN)NC(=O)[C@@H](N)CC(C)C)C(=O)N[C@@H](C)C(=O)NCC(=O)O [LKKLLKLLKKLAKLAG]
5 | 233 µM (≈ 200 µg/mL) | 58.2 µM (≈ 49.9 µg/mL) | 58.2 µM (≈ 49.9 µg/mL) | – | NC(=O)[C@H](CCCN=C(N)N)NC(=O)[C@H](Cc1c[nH]c2ccccc12)NC(=O)[C@H](CCCN=C(N)N)NC(=O)[C@H](Cc1c[nH]c2ccccc12)NC(=O)[C@@H](N)CCCN=C(N)N [RWRWR]
6 | – | 32 µM (≈ 48.2 µg/mL) | – | – | CC(C)C[C@H](NC(=O)[C@H](Cc1ccccc1)NC(=O)[C@H](C)NC(=O)CNC(=O)[C@H](Cc1c[nH]c2ccccc12)NC(=O)[C@H](CC(N)=O)NC(=O)[C@@H](N)CC(C)C)C(=O)N[C@@H](CCCCN)C(=O)N[C@@H](Cc1cnc[nH]1)C(=O)N[C@@H](Cc1ccccc1)C(=O)N[C@@H](Cc1ccccc1)C(=O)N[C@@H](CCCCN)C(=O)O [LNWGAFLKHFFK]
7 | – | 16 µM (≈ 22.7 µg/mL) | – | – | CC[C@H](C)[C@H](NC(=O)[C@H](C)NC(=O)CNC(=O)[C@H](Cc1c[nH]c2ccccc12)NC(=O)[C@H](CC(N)=O)NC(=O)[C@@H](N)CC(C)C)C(=O)N[C@@H](CCCCN)C(=O)N[C@@H](CCCCN)C(=O)N[C@@H](Cc1cnc[nH]1)C(=O)N[C@H](C(=O)N[C@H](C(=O)N[C@@H](CCCCN)C(=O)O)[C@@H](C)CC)[C@@H](C)CC [LNWGAIKKHIIK]
8 | 8 µM (≈ 14.3 µg/mL) | – | – | – | CC(C)C[C@H](NC(=O)[C@H](Cc1ccccc1)NC(=O)[C@@H]1CCCN1C(=O)[C@H](C)NC(=O)[C@H](Cc1c[nH]c2ccccc12)NC(=O)[C@H](Cc1c[nH]c2ccccc12)NC(=O)[C@@H]1CCCN1C(=O)[C@H](Cc1ccccc1)NC(=O)[C@H](CCCN=C(N)N)NC(=O)[C@H](CCCN=C(N)N)NC(=O)[C@@H](N)C(C)C)C(=O)N[C@@H](CCCN=C(N)N)C(=O)N[C@@H](CCCN=C(N)N)C(N)=O [VRRFPWWAPFLRR]
9 | > 100 µM | > 100 µM | – | – | CC[C@H](C)[C@H](NC(=O)[C@H](Cc1ccc(O)cc1)NC(=O)[C@H](CCC(N)=O)NC(=O)[C@H](CC(C)C)NC(=O)[C@H](C)NC(=O)[C@H](CCCCN)NC(=O)[C@H](CCCCN)NC(=O)[C@@H](N)CCSC)C(=O)N[C@@H](CCCCN)C(=O)N[C@@H](CC(C)C)C(=O)N[C@@H](CC(C)C)C(=O)N[C@@H](CCCCN)C(=O)N[C@@H](CCC(=O)O)C(N)=O [MKKALQYIKLLKE]

More lines, now with the values behind:

Row | SMILES | MIC [1] | MIC [2] | MIC [3] | MIC [4]
10 | CC[C@H](C)[C@H](NC(=O)[C@H](CCCCN)NC(=O)[C@H](CCCCN)NC(=O)[C@@H](NC(=O)[C@@H](NC(=O)[C@H](CCCCN)NC(=O)[C@H](Cc1ccccc1)NC(=O)[C@H](CC(C)C)NC(=O)CN)[C@@H](C)CC)[C@@H](C)CC)C(=O)N[C@@H](C)C(=O)N[C@@H](CCCCN)C(=O)N[C@@H](CO)C(=O)N[C@@H](Cc1ccccc1)C(N)=O [GLFKIIKKIAKSF] | 16.7 µM and 33.5 µM | – | – | –
11 | CC[C@H](C)[C@H](NC(=O)CNC(=O)[C@H](C)NC(=O)[C@@H](NC(=O)[C@H](CC(N)=O)NC(=O)[C@H](CCCCN)NC(=O)[C@H](C)NC(=O)[C@H](C)NC(=O)CNC(=O)[C@H](CCCCN)NC(=O)[C@@H](NC(=O)[C@@H](NC(=O)[C@H](CC(=O)O)NC(=O)[C@H](CC(C)C)NC(=O)[C@H](CC(C)C)NC(=O)[C@H](CC(C)C)NC(=O)CN)[C@@H](C)O)C(C)C)C(C)C)C(=O)N[C@@H](CC(C)C)C(=O)N[C@@H](CC(C)C)C(=O)N[C@@H](CC(N)=O)C(=O)N[C@@H](CCCCN)C(=O)N[C@@H](CC(C)C)C(=O)N[C@@H](CCCCN)C(=O)N[C@H]1CSSC[C@@H](C(=O)O)NC(=O)[C@H](CC(=O)O)NC(=O)CNC(=O)[C@H]([C@@H](C)O)NC(=O)[C@H](CCSC)NC(=O)[C@H](CCCCN)NC1=O [GLLLDTVKGAAKNVAGILLNKLKCKMTGDC] | 4.05 µM (≈ 12.5 µg/mL) | – | – | –
12 | CC[C@H](C)[C@H](NC(=O)[C@@H](NC(=O)[C@H](CC(=O)O)NC(=O)[C@H](CC(C)C)NC(=O)[C@H](CC(C)C)NC(=O)[C@H](CCC(N)=O)NC(=O)CNC(=O)[C@H](C)NC(=O)[C@H](CC(C)C)NC(=O)[C@H](CC(N)=O)NC(=O)[C@H](CCCCN)NC(=O)[C@H](C)NC(=O)[C@H](C)NC(=O)[C@H](CC(N)=O)NC(=O)[C@H](CCCCN)NC(=O)[C@@H](NC(=O)[C@@H](NC(=O)[C@H](CC(=O)O)NC(=O)[C@H](CCSC)NC(=O)[C@H](CC(C)C)NC(=O)CN)[C@@H](C)O)C(C)C)[C@@H](C)O)C(=O)N[C@@H](CCCCN)C(=O)N[C@H]1CSSC[C@@H](C(=O)O)NC(=O)CNC(=O)[C@H]([C@@H](C)O)NC(=O)[C@H](CCSC)NC(=O)[C@H](CCCCN)NC1=O [GLMDTVKNAAKNLAGQLLDTIKCKMTGC] | 30 µM (≈ 88.1 µg/mL) | – | – | –
13 | C[C@H](NC(=O)[C@H](Cc1ccccc1)NC(=O)[C@H](C)NC(=O)[C@H](Cc1ccccc1)NC(=O)[C@H](CCCCN)NC(=O)[C@H](C)NC(=O)[C@H](Cc1ccccc1)NC(=O)[C@H](CCCCN)NC(=O)[C@H](CCCCN)NC(=O)[C@H](C)NC(=O)[C@H](Cc1ccccc1)NC(=O)[C@H](CCCCN)NC(=O)[C@H](CCCCN)NC(=O)[C@H](Cc1ccccc1)NC(=O)[C@H](CCCCN)NC(=O)[C@H](CCCCN)NC(=O)[C@H](C)NC(=O)[C@H](Cc1ccccc1)NC(=O)[C@H](CCCCN)NC(=O)[C@H](CCCCN)NC(=O)[C@H](C)NC(=O)[C@@H](N)Cc1ccccc1)C(=O)N[C@@H](Cc1ccccc1)C(N)=O [FAKKFAKKFKKFAKKFAKFAFAF] | 1.44 µM (≈ 4 µg/mL) | 1.44 µM (≈ 4 µg/mL) | 1.44 µM (≈ 4 µg/mL) | –
14 | CC(C)C[C@H](NC(=O)[C@H](CO)NC(=O)[C@@H](N)CCCCN)C(=O)N[C@H](C(=O)N[C@@H](CCCN=C(N)N)C(=O)N[C@@H](CCCN=C(N)N)C(=O)N[C@@H](Cc1c[nH]c2ccccc12)C(=O)N[C@@H](CCCN=C(N)N)C(=O)N[C@@H](CO)C(=O)N[C@@H](CCCN=C(N)N)C(=O)N[C@@H](Cc1c[nH]c2ccccc12)C(N)=O)C(C)C [KSLVRRWRSRW] | 30 µM (≈ 45.9 µg/mL) | 40 µM (≈ 61.2 µg/mL) | 30 µM (≈ 45.9 µg/mL) | –
15 | CC[C@H](C)[C@H](NC(=O)[C@H](CCCCN)NC(=O)[C@H](C)NC(=O)[C@H](CCSC)NC(=O)[C@@H](NC(=O)[C@H](CCCCN)NC(=O)[C@H](CC(C)C)NC(=O)[C@H](Cc1ccccc1)NC(=O)[C@@H](NC(=O)[C@H](CC(=O)O)NC(=O)CNC(=O)[C@H](Cc1c[nH]c2ccccc12)NC(=O)CN)[C@@H](C)O)[C@@H](C)O)C(=O)N[C@@H](C)C(=O)N[C@@H](CCCCN)C(=O)N[C@H](C(=O)NCC(=O)N1CCC[C@H]1C(=O)N[C@@H](CCCCN)C(=O)N[C@@H](CC(C)C)C(=O)N[C@@H](CC(C)C)C(=O)N[C@@H](Cc1cnc[nH]1)C(=O)N[C@@H](CO)C(=O)O)C(C)C [GWGDTFLKTMAKIAKVGPKLLHS] | – | – | > 64 µM and 32 µM | –
16 | CC[C@H](C)[C@H](NC(=O)[C@H](CCCN=C(N)N)NC(=O)[C@H](CCC(N)=O)NC(=O)[C@@H](NC(=O)[C@@H](NC(=O)[C@H](CCCN=C(N)N)NC(=O)[C@H](CCCCN)NC(=O)[C@H](C)N)[C@@H](C)CC)C(C)C)C(=O)N[C@@H](CCCCN)C(=O)N[C@@H](CC(=O)O)C(=O)N[C@@H](Cc1ccccc1)C(=O)N[C@@H](CC(C)C)C(=O)N[C@@H](CCCN=C(N)N)C(=O)O [AKRIVQRIKDFLR] | 10 µM (≈ 16.4 µg/mL) | – | – | > 40 µM
17 | CC[C@H](C)[C@H](NC(=O)[C@H](CCCN=C(N)N)NC(=O)[C@H](CCC(N)=O)NC(=O)[C@@H](NC(=O)[C@@H](NC(=O)[C@H](CCCN=C(N)N)NC(=O)[C@H](CCCCN)NC(=O)[C@@H](N)Cc1ccccc1)[C@@H](C)CC)C(C)C)C(=O)N[C@@H](CCCCN)C(=O)N[C@@H](CC(=O)O)C(=O)N[C@@H](CCC(N)=O)C(=O)N[C@@H](CC(C)C)C(=O)N[C@@H](CCCN=C(N)N)C(=O)O [FKRIVQRIKDQLR] | 10 µM (≈ 17 µg/mL) | – | – | > 40 µM
18 | CC[C@H](C)[C@H](NC(=O)[C@H](CCCCN)NC(=O)[C@H](CO)NC(=O)[C@H](C)NC(=O)[C@H](Cc1c[nH]c2ccccc12)NC(=O)CN)C(=O)NCC(=O)N[C@H](C(=O)N[C@@H](CCC(N)=O)C(=O)N[C@@H](CC(C)C)C(=O)NCC(=O)N[C@@H](CCCCN)C(=O)N[C@@H](CCSC)C(=O)N[C@@H](C)C(=O)N[C@@H](CCCCN)C(=O)N[C@H](C(=O)NCC(=O)N[C@@H](CC(C)C)C(=O)N[C@@H](CCCCN)C(=O)N[C@@H](CCC(=O)O)C(=O)N[C@@H](Cc1ccccc1)C(=O)N[C@H](C(=O)N[C@@H](CCC(N)=O)C(=O)N[C@@H](CO)C(=O)O)C(C)C)C(C)C)[C@@H](C)O [GWASKIGTQLGKMAKVGLKEFVQS] | 100 µM (≈ 256 µg/mL) | – | 25 µM (≈ 64.1 µg/mL) | –
19 | CSCC[C@H](NC(=O)[C@@H](N)CCCCN)C(=O)N[C@@H](CCCCN)C(=O)N[C@@H](CCCCN)C(=O)N[C@@H](C)C(=O)N[C@@H](CC(C)C)C(=O)N[C@@H](CCC(N)=O)C(=O)N[C@@H](Cc1ccc(O)cc1)C(N)=O [KMKKALQY] | > 100 µM | > 100 µM | – | –
